According to patent publication US20090018163A1, “Substituted Heterocyclic Ethers and Their Use in CNS Disorders” (Bristol-Myers Squibb Company, priority 2007, published 2009):
Where two headings read alike, the source gives them in different places.

Assays:
NK-1 = biological target: T1, NK-1 (Homo sapiens, UniProt P25103); test: NK1 radioligand binding assay; conditions: U373 membrane preparation, [125I]Substance P; Table 1
T1 construct: 30 ul/well of a 2×U373 membrane preparation; endogenous in cells; host or cells: U373 cells (crude membrane preparation)
T1 sequence (P25103 whole entry): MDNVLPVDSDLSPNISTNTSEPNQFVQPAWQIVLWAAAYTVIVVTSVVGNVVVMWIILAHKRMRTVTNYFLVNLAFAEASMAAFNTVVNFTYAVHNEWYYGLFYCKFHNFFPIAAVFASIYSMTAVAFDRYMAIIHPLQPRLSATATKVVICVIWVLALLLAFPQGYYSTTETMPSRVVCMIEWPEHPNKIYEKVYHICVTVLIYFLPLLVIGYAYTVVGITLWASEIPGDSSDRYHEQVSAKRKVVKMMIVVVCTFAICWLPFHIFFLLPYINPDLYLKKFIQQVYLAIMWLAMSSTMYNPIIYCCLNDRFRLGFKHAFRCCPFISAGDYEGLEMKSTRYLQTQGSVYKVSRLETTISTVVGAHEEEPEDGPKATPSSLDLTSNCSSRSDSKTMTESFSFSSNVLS
Procedure: (§1) NK-1 Binding assay. Crude membrane suspensions were prepared for the NK1 and SERT radioligand binding assays from U373 cells or recombinant HEK-293 cells expressing hSERT, respectively. Cells were harvested from T-175 flasks as follows. The medium is removed from the flasks and the cells rinsed with HBSS without Ca and without Mg. The cells are then incubated for 5-10 minutes in 10 mM Tris-Cl, pH 7.5, 5 mM EDTA before the cells are lifted with a combination of pipetting and scraping, as needed. To prepare membranes, the cell suspension is collected into centrifuge bottles and homogenized for 30 seconds with a Polytron homogenizer. The suspension is centrifuged for 30 min @ 32,000×g, 4° C., then the supernatant is decanted and the pellet resuspended and homogenized in 50 mM Tris-Cl, pH 7.5, 1 mM EDTA for 10 seconds. The suspension is then centrifuged again for 30 min @ 32,000×g, 4° C. The supernatant is decanted and the pellet resuspended in 50 mM Tris-Cl, pH 7.5, 1 mM EDTA and briefly homogenized. A Bradford assay (Bio-rad) is performed and the membrane preparation diluted to 2 mg/ml with 50 mM Tris-Cl, pH 7.5, 1 mM EDTA. Aliquots are prepared, and then frozen and stored at −80° C.
NK1 radioligand binding assay. Compounds are dissolved in 100% DMSO at a concentration 100× the desired highest assay concentration, serially diluted 1:3 in 100% DMSO, and 0.6 ul/well of each solution is dispensed to a Nunc polypropylene, round bottom, 384 well plate. 100% inhibition is defined with 0.6 ul/well of 1 mM L-733,060 (Sigma L-137) dissolved in DMSO. 30 ul/well of a 2×U373 membrane preparation (267 ug/ml in 100 mM Tris-Cl, pH 7.5, 6 mM MgCl2, 0.2% (v/v) Sigma mammalian protease inhibitor cocktail (Sigma P-8340), and 4 ug/ml chymostatin, Sigma C-7268) and 30 ul/well of a 2× radioligand solution (400 pM [^125I]Substance P (Perkin Elmer NEX-190) in 1% (w/v) BSA (Sigma A-2153), 0.1 mg/ml bacitracin, Sigma B-0125) are added to the well and the reaction incubated for 1 hour at room temperature. The contents of the assay plate are then transferred to a Millipore MultiscreenHTS GF/B filter plate which has been pretreated with 0.5% PEI for at least one hour. The plate is vacuum filtered and washed with 7 washes of 100 ul/well of 20 mM Tris-Cl, pH 7.5, 0.5% (w/v) BSA chilled to 4° C. The filtration and washing is completed in less than 90 s. The plates are air-dried overnight, 12 ul/well of MicroScint scintillation fluid added, and the plates counted in a Trilux.
(§2) Data analysis. The raw data are normalized to percent inhibition using control wells defining 0% (DMSO only) and 100% (selective inhibitor) inhibition which are run on each plate. Each plate is run in triplicate, and the concentration response curve thus generated is fit using the four-parameter dose response equation, Y=Bottom+(Top-Bottom)/(1+10̂((LogIC50−X)*HillSlope)) in order to determine the IC50 value for each compound. The radioligand concentration chosen for each assay corresponds to the Kd concentration determined through saturation binding analysis for each assay.

hSERT = biological target: T2, hSERT (Homo sapiens, UniProt P31645); test: SERT radioligand binding assay
T2 construct: expressed in transfected cells; host or cells: HEK-293 cells (crude membrane preparation)
T2 sequence (P31645 whole entry): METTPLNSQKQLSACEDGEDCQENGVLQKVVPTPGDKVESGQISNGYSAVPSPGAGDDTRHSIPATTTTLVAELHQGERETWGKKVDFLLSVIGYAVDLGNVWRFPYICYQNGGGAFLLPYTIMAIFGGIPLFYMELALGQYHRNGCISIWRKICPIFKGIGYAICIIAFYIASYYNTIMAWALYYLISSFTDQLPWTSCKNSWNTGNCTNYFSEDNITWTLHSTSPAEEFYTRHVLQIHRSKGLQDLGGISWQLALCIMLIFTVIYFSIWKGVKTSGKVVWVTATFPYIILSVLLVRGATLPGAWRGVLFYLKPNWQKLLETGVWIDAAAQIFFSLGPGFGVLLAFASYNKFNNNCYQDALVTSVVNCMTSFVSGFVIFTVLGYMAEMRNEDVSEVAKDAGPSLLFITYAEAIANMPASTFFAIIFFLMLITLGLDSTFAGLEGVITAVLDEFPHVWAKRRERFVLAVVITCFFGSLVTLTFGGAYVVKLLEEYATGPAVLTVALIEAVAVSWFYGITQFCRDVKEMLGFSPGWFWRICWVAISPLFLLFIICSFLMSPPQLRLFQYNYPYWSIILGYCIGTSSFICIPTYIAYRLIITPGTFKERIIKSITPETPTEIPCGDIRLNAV
Procedure: as §1
SERT radioligand binding assay. Compounds are dissolved in 100% DMSO at a concentration 100× the desired highest assay concentration, serially diluted 1:3 in 100% DMSO, and 0.4 ul/well of each solution is dispensed to a Nunc polypropylene, round bottom, 384 well plate. 100% inhibition is defined with 0.4 ul/well of 1 mM fluoxetine (Sigma F-132) dissolved in DMSO. 20 ul/well of a 2×HEK-hSERT membrane preparation (15 ug/ml in 50 mM Tris-Cl, pH 7.5, 120 mM NaCl, 5 mM KCl) and 20 ul/well of a 2× radioligand solution (520 pM [^125I]RTI-55 (Perkin-Elmer NEX-272) in 50 mM Tris-Cl, pH 7.5, 120 mM NaCl, 5 mM KCl) are added to each well and the reaction incubated for 1 hour at room temperature. The contents of the assay plate are then transferred to a Millipore MultiscreenHTS GF/B filter plate which has been pretreated with 0.5% PEI for at least one hour. The plate is vacuum filtered and washed with 7 washes of 100 ul/well of 50 mM Tris-Cl, pH 7.5, 120 mM NaCl, 5 mM KCl chilled to 4° C. The filtration and washing is completed in less than 90 s. The plates are air-dried overnight, 12 ul/well of MicroScint scintillation fluid added, and the plates counted in a Trilux.
as §2

[1] = HEK-hSERT membrane preparation, [125I]RTI-55, Table 1, read-out: SERT IC50

SMILES | IC50 (NK-1) | IC50 (hSERT) | IC50 (hSERT; [1])
CN1CCC(COCc2cc(-c3ccc(C#N)cc3)cc3cccnc23)(c2ccccc2)CC1 [Example 25] | > 300 nM | 0.01 to 100 nM | –
Cc1cc(COCC2(c3ccccc3)CCN(C)CC2)c2ncccc2c1 [Example 26] | 0.01 to 100 nM | – | 0.01 to 100 nM
Cc1cc(COCC2(c3ccc(F)cc3F)CCNCC2)c2ncccc2c1 [Example 27] | 0.01 to 100 nM | – | 0.01 to 100 nM
Cc1cc(COCC2(c3ccc(F)cc3F)CCN(C)CC2)c2ncccc2c1 [Example 28] | 100 to 300 nM | 0.01 to 100 nM | –
Cc1cc(COCC2(c3ccc(F)cc3)CCNCC2)c2ncccc2c1 [Example 29] | 0.01 to 100 nM | – | 0.01 to 100 nM
Cc1cc(COCC2(c3ccc(F)cc3)CCN(C)CC2)c2ncccc2c1 [Example 30] | 0.01 to 100 nM | – | 0.01 to 100 nM
c1ccc(C2(COCc3cccc4cccnc34)CCNCC2)cc1 [Example 31, 8-(((4-phenylpiperidin-4-yl)methoxy)methyl)quinoline] | > 300 nM | – | 0.01 to 100 nM
CN1CCC(COCc2cc(C(F)(F)F)cc3cccnc23)(c2ccc(F)cc2)CC1 [Example 32, 8-(((4-(4-fluorophenyl)-1-methylpiperidin-4-yl)methoxy)methyl)-6-(trifluoromethyl)quinoline] | 0.01 to 100 nM | – | 0.01 to 100 nM
CC(OCC1(c2ccc(F)cc2)CCNCC1)c1cc(C(F)(F)F)cc2cccnc12 (stereo not shown) [Example 33] | 0.01 to 100 nM | – | 0.01 to 100 nM
CC(OCC1(c2ccc(F)cc2)CCN(C)CC1)c1cc(C(F)(F)F)cc2cccnc12 (stereo not shown) [Example 34] | 0.01 to 100 nM | – | 0.01 to 100 nM
CC(OCC1(c2ccccc2)CCNCC1)c1cc(C(F)(F)F)cc2cccnc12 (stereo not shown) [Example 35] | 0.01 to 100 nM | – | 0.01 to 100 nM
CC(OCC1(c2ccccc2)CCN(C)CC1)c1cc(C(F)(F)F)cc2cccnc12 (stereo not shown) [Example 36] | 0.01 to 100 nM | – | 0.01 to 100 nM
CC(OCC1(c2ccc(F)cc2F)CCNCC1)c1cc(C(F)(F)F)cc2cccnc12 (stereo not shown) [Example 37] | 0.01 to 100 nM | – | 0.01 to 100 nM
CC(OCC1(c2ccc(F)cc2F)CCN(C)CC1)c1cc(C(F)(F)F)cc2cccnc12 (stereo not shown) [Example 38] | 0.01 to 100 nM | – | 0.01 to 100 nM
Cc1cc(C(C)OCC2(c3ccc(F)cc3)CCNCC2)c2ncccc2c1 (stereo not shown) [Example 39] | 0.01 to 100 nM | – | 0.01 to 100 nM
Cc1cc(C(C)OCC2(c3ccc(F)cc3)CCN(C)CC2)c2ncccc2c1 (stereo not shown) [Example 40] | 0.01 to 100 nM | – | 0.01 to 100 nM
Cc1cc(C(C)OCC2(c3ccccc3)CCNCC2)c2ncccc2c1 (stereo not shown) [Example 41] | 0.01 to 100 nM | – | 0.01 to 100 nM
Cc1cc(C(C)OCC2(c3ccccc3)CCN(C)CC2)c2ncccc2c1 (stereo not shown) [Example 42] | 0.01 to 100 nM | – | 0.01 to 100 nM
Cc1cc(C(C)OCC2(c3ccc(F)cc3F)CCN(C)CC2)c2ncccc2c1 (stereo not shown) [Example 43] | 0.01 to 100 nM | – | 0.01 to 100 nM
CN1CCC(COCc2cc(C#N)cc3cccnc23)(c2ccc(F)cc2)CC1 [Example 44, 8-(((4-(4-fluorophenyl)-1-methylpiperidin-4-yl)methoxy)methyl)quinoline-6-carbonitrile] | > 300 nM | 0.01 to 100 nM | –
CNc1cc(COCC2(c3ccccc3)CCNCC2)nc2cccc(C(F)(F)F)c12 [Example 45, N-methyl-2-(((4-phenylpiperidin-4-yl)methoxy)methyl)-5-(trifluoromethyl)quinolin-4-amine] | > 300 nM | – | 0.01 to 100 nM
FC(F)(F)c1ccc2ccc(COCC3(c4ccccc4)CCNCC3)nc2c1 [Example 46, 2-(((4-phenylpiperidin-4-yl)methoxy)methyl)-7-(trifluoromethyl)quinoline] | > 300 nM | – | 0.01 to 100 nM
FC(F)(F)c1ccnc2ccc(COCC3(c4ccccc4)CCNCC3)cc12 [Example 47, 6-(((4-phenylpiperidin-4-yl)methoxy)methyl)-4-(trifluoromethyl)quinoline] | > 300 nM | – | 0.01 to 100 nM
FC(F)(F)c1cccc2nc(COCC3(c4ccccc4)CCNCC3)ccc12 [Example 48, 2-(((4-phenylpiperidin-4-yl)methoxy)methyl)-5-(trifluoromethyl)quinoline] | > 300 nM | – | 0.01 to 100 nM
Cc1cc(C(C)OCC2(c3ccc(F)cc3)CCN(C)CC2)c2nc(Cl)ccc2c1 (stereo not shown) [Example 49] | 0.01 to 100 nM | – | 0.01 to 100 nM
COc1ccc2cc(C)cc(C(C)OCC3(c4ccc(F)cc4)CCN(C)CC3)c2n1 (stereo not shown) [Example 50] | 0.01 to 100 nM | – | 0.01 to 100 nM
Cc1cc(C(C)OCC2(c3ccc(F)cc3)CCN(C)CC2)c2nc(N(C)C)ccc2c1 (stereo not shown) [Example 51] | 0.01 to 100 nM | – | 100 to 300 nM
Cc1cc(C(C)OCC2(c3ccc(F)cc3)CCN(C)CC2)c2nc(F)ccc2c1 (stereo not shown) [Example 52] | 0.01 to 100 nM | – | 0.01 to 100 nM
Cc1cc(C(C)OCC2(c3ccc(F)cc3)CCN(C)CC2)c2[nH]c(=O)ccc2c1 (stereo not shown) [Example 53] | 0.01 to 100 nM | – | 0.01 to 100 nM
